# Test results from US8598084B2, “Synergistic herbicide/insecticide composition containing certain pyridine carboxylic acids and certain insecticides” (priority 2010, dated 2013).
# “And” between values parts separate entries of the source, which are not always exact repeats. Equal entries are not always repeated.
# Assays:
# Type in all cases: in vivo
# [1] = system: Russian thistle (Salsola iberica L; SASKR); assay: Postemergence herbicidal activity of mixtures, greenhouse, visual injury vs control
# Protocol: (§1) Evaluation of Postemergence Herbicidal Activity of Mixtures in Cereal Crops
# (§2) Seeds of the desired test plant species were planted in Sun Gro MetroMix® 306 planting mixture, which typically has a pH of 6.0 to 6.8 and an organic matter content of about 30 percent, in plastic pots with a surface area of 103.2 square centimeters (cm^2). When required to ensure good germination and healthy plants, a fungicide treatment and/or other chemical or physical treatment was applied. The plants were grown for 7-36 days (d) in a greenhouse with an approximate 14 hour (h) photoperiod which was maintained at about 18° C. during the day and 17° C. during the night. Nutrients and water were added on a regular basis and supplemental lighting was provided with overhead metal halide 1000-Watt lamps as necessary. The plants were employed for testing when they reached the second or third true leaf stage.
# (§3) Treatments consisted of an insecticidal compound (as listed in Tables 1 through 18) and the cereal herbicide, 4-amino-3-chloro-6-(4-chloro-2-fluoro-3-methoxyphenyl)pyridine-2-carboxylic acid, alone and in combination. Weighed amounts of esters (methyl) or salts (triethylammonium, TEA) of 4-amino-3-chloro-6-(4-chloro-2-fluoro-3-methoxyphenyl)pyridine-2-carboxylic acid (Compound I) were placed in 25 milliliter (mL) glass vials and dissolved in a volume of 97:3 volume per volume (v/v) acetone/dimethyl sulfoxide (DMSO) to obtain 4.5 milligrams active ingredient per mL (mg ai/mL) concentrated solutions. […] The concentrated solutions of Compound I were diluted to 1.5 mg ai/mL with the addition of 2 volumes of an aqueous mixture containing acetone, water, isopropyl alcohol, DMSO, Agri-dex crop oil concentrate, and Triton® X-77 surfactant in a 64.7:26.0:6.7:2.0:0.7:0.01 v/v ratio. A dilution solution was prepared by mixing 1 volume of 97:3 v/v acetone/DMSO and 2 volumes of an aqueous mixture containing acetone, water, isopropyl alcohol, DMSO, Agri-dex crop oil concentrate, and Triton® X-77 surfactant in a 64.7:26.0:6.7:2.0:0.7:0.01 v/v ratio. Compound requirements are based upon a 12 mL application volume at a rate of 187 liters per hectare (L/ha). The concentrated solutions of the cereal insecticides were prepared following the same procedure. Weighed amounts of insecticide were placed in 25 milliliter (mL) glass vials and dissolved in a volume of 97:3 v/v acetone/DMSO to obtain concentrated insecticide solutions. The concentrated solutions of the safener were prepared following the same procedure. Weighed amounts of safener were placed in 25 mL glass vials and dissolved in a volume of 97:3 v/v acetone/DMSO to obtain concentrated safener solutions. The concentrated solutions were diluted to 0.75 mg/mL with an aqueous mixture of 1.5% v/v of Agri-dex crop oil concentrate.
# (§4) Spray solutions of the cereal herbicide and the insecticidal compound mixtures were prepared by adding the concentrated solutions to the appropriate amount of dilution solution to form 12 mL spray solution with active ingredients in combinations. Spray solutions of the cereal herbicide, herbicide safener and the insecticidal compound mixtures were prepared by adding the concentrated solutions to the appropriate amount of dilution solution to form 12 mL spray solution with active ingredients in combinations. Formulated compounds were applied to the plant material with an overhead Mandel track sprayer equipped with 8002E nozzles calibrated to deliver 187 L/ha over an application area of 0.503 square meters (m^2) at a spray height of 18 inches […] above average plant canopy. Control plants were sprayed in the same manner with the solvent blank.
# (§5) The treated plants and control plants were placed in a greenhouse as described above and watered by sub-irrigation to prevent wash-off of the test compounds. […]
# [2] = system: wild pansy (Viola tricolor L; VIOTR); assay: as above
# Protocol: as §1, §2, §3, §4, §5
# [3] = system: redroot pigweed (Amaranthus retroflexus L; AMARE); assay: as above; conditions: 17.5 g/ha alone
# Protocol: as §1, §2, §3, §4, §5
# [4] = system: Canada thistle (Cirsium arvense L; CIRAR); assay: as above; conditions: 17.5 g/ha alone
# Protocol: as §1, §2, §3, §4, §5
# [5] = system: bird's-eye speedwell (Veronica persica L; VERPE); assay: as above; conditions: Veronica persica, post-emergence, read-out: Ob (observed injury);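 further: visual score 0 means no injury and 100 means complete kill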
# Protocol: as §1, §2, §3, §4, §5
# [6] = system: kochia (Kochia scoparia L; KCHSC); assay: as above
# Protocol: as §1, §2, §3, §4, §5
# [7] = system: scented mayweed (Matricaria chamomila L; MATCH); assay: as above
# Protocol: as §1, §2, §3, §4, §5
# [8] = system: barley (Hordeum vulgare L; HORVS); assay: Postemergence crop injury and safening, greenhouse, visual injury vs control
# Protocol: as §1, §2, §3, §4, §5
# [9] = system: wheat (Triticum aestivum L; TRZAS); assay: as above
# Protocol: as §1, §2, §3, §4, §5
# [10] = application rate g/ha: Compound I methyl ester 35, Malathion 0, Cloquintocet 0
structure (smiles),measurement,setting,value
"COC(=O)c1nc(-c2ccc(Cl)c(OC)c2F)cc(N)c1Cl [Compound I Methyl ester, 4-amino-3-chloro-6-(4-chloro-2-fluoro-3-methoxyphenyl)pyridine-2-carboxylic acid methyl ester]",pest or weed control at 8.75 g/ha,"[1]; Salsola tragus, post-emergence, 8.75 g/ha alone, read-out: Ob (observed injury)",71%
same,pest or weed control at 17.5 g/ha,"[1]; Salsola tragus, post-emergence, 17.5 g/ha alone, read-out: Ob (observed injury)",81%
same,pest or weed control at 35 g/ha,"[1]; Salsola tragus, post-emergence, 35 g/ha alone, read-out: Ob (observed injury)",89%
same,SASKR Ob,[1]; [10],89
same,pest or weed control at 8.75 g/ha,"[2]; Viola tricolor, post-emergence, 8.75 g/ha alone, read-out: Ob (observed injury)",36%
same,pest or weed control at 17.5 g/ha,"[2]; Viola tricolor, post-emergence, 17.5 g/ha alone, read-out: Ob (observed injury)",44%
same,pest or weed control at 35 g/ha,"[2]; Viola tricolor, post-emergence, 35 g/ha alone, read-out: Ob (observed injury)",56%
same,VIOTR Ob,[2]; [10],56
same,Ob (observed injury),[3],90%
same,Ob (observed injury),[4],62%
same,pest or weed control at 8.75 g/ha,[5]; 8.75 g/ha alone,36%
same,pest or weed control at 17.5 g/ha,[5]; 17.5 g/ha alone,47%
same,pest or weed control at 35 g/ha,[5]; 35 g/ha alone,73%
same,pest or weed control at 8.75 g/ha,"[6]; Bassia scoparia, post-emergence, 8.75 g/ha alone, read-out: Ob (observed injury)",79%
same,pest or weed control at 17.5 g/ha,"[6]; Bassia scoparia, post-emergence, 17.5 g/ha alone, read-out: Ob (observed injury)",88%
same,pest or weed control at 35 g/ha,"[6]; Bassia scoparia, post-emergence, 35 g/ha alone, read-out: Ob (observed injury)",97%
same,KCHSC Ob,[6]; [10],97
same,pest or weed control at 8.75 g/ha,"[7]; Matricaria, post-emergence, 8.75 g/ha alone, read-out: Ob (observed injury)",67%
same,pest or weed control at 17.5 g/ha,"[7]; Matricaria, post-emergence, 17.5 g/ha alone, read-out: Ob (observed injury)",80%
same,pest or weed control at 35 g/ha,"[7]; Matricaria, post-emergence, 35 g/ha alone, read-out: Ob (observed injury)",88%
same,MATCH Ob,[7]; [10],88
same,Ob (observed injury),"[8]; 35 g/ha alone, crop injury",28% and 32%
same,HORVS Ob,[8]; [10],32
same,Ob (observed injury),"[9]; 35 g/ha alone, crop injury",39% and 41%
same,TRZAS Ob,[9]; [10],41
